Earlier results, collected in patent US11229674B1, “Nutraceuticals for suppressing indolamine 2,3 deoxygenase” (Therapeutic Solutions International, Inc., priority 2020, dated 2022).

What was measured:
[1] = biological target: T1, IDO (Mus musculus, UniProt P28776); details: mice, combined with chemotherapeutic agents
T1 construct: host or cells: tumour-bearing mice (whole animal)

[2] = biological target: T1, IDO; details: pregnant mice, allogeneic fetuses

T1 sequence (P28776 whole entry): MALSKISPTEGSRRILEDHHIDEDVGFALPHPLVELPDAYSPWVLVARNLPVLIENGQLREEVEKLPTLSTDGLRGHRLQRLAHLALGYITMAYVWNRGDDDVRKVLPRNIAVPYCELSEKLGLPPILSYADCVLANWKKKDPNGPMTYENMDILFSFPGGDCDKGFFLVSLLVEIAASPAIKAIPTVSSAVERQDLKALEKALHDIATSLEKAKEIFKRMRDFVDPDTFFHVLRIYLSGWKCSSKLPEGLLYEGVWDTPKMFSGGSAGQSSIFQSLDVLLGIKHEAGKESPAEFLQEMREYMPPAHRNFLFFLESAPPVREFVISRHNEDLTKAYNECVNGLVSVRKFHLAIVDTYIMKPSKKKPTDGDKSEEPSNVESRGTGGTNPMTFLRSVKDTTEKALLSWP

Structure (SMILES): Cn1cc(CC(N)C(=O)O)c2ccccc21 (centres unmarked) [1MT]
- Tumor growth [1]: synergize with chemotherapeutic agents to reduce tumor growth
- Fetal allograft rejection [2]: rapid, T cell-induced rejection of all allogeneic concept
